For this data set the following is noted: 80 mg/Kg body weight in semi-solid pill.

Text: Data are presented as mean±S.E.M. (n=6-8 experimental group).

On to `CC(=O)CC(c1ccccc1)c1c(O)c2ccccc2oc1=O` (centres unmarked) [warfarin], for which the “day of euthanasia for critical signs of illness (e.g. bleeding)” value stood at 8 days; the “day post-administration from which poor health status and evident signs of toxicity appeared” value is 4 days.

Values taken from US20230233469A1, “SEMI-SOLID FORMULATION FOR VOLUNTARY ORAL ADMINISTRATION OF BIOACTIVE COMPOUNDS TO RODENTS” (priority 2020, published 2023).
